The record followed here is ChEMBL document CHEMBL1201862, “PubChem BioAssay data set” (2004).

Some test systems named below: CAKI-1; HCT-116; MDA-MB-231; HCC 2998; HOP-92; ACHN; BT-549; NCI/ADR-RES; UO-31; SNB-75; OVCAR-8; EKVX; NCI-H522; NCI-H226; Malme-3M; COLO 205; SF-539; NCI-H23; T47D; LOX IMVI.
Holding throughout (assay): NCI tumour cell line growth inhibition, 48 h

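How tested: cells in 96-well plates exposed to compound for 48 hours at five concentrations. The concentration for 50% growth inhibition is given as GI50.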 Activity calls are given as the source filed them. Rule as the data show it: active = GI50 up to about 1.1 µM and inactive = higher.

As for `Cc1ccc(/N=N/c2c(O)c(C(=O)O)cc3ccccc23)cc1C`, the GI50 in the experiment with CAKI-1, in the experiment on HCT-116, with MDA-MB-231, in the experiment on HCC 2998, in the experiment on HOP-92 and with ACHN was > 100 µM (inactive) each time. For the same compound, the GI50 in the experiment with BT-549, with NCI/ADR-RES, in the experiment with UO-31, in the experiment with SNB-75, in the experiment on OVCAR-8 and in the experiment with EKVX was > 100 µM (inactive) each time. Moreover, the GI50 in the experiment with NCI-H522, in the experiment with NCI-H226, in the experiment on Malme-3M, with COLO 205, in the experiment with SF-539 and with NCI-H23 was > 100 µM (inactive) throughout.
Regarding `O=C(COc1ccc(OCC(=O)N2C(=O)CS/C2=N\c2ccccc2)cc1)N1C(=O)CS/C1=N\c1ccccc1`, the GI50 with CAKI-1 was 20.6 µM (inactive); in the experiment with HCT-116, 10.6 µM (inactive); in the experiment with MDA-MB-231 it was 15.6 µM (inactive); in the experiment with HCC 2998, 14.9 µM (inactive); in the experiment with HOP-92, 26.2 µM (inactive); in the experiment with ACHN it was 12.5 µM (inactive). Moreover, the GI50 is 18 µM (inactive) with BT-549; 19.5 µM (inactive) in the experiment on NCI/ADR-RES; 25.2 µM (inactive) in the experiment with UO-31; 90.4 µM (inactive) in the experiment with SNB-75; 32.8 µM (inactive) with EKVX; 11.1 µM (inactive) in the experiment on NCI-H522. In addition, the GI50 was 26.5 µM (inactive) with NCI-H226, 4 µM (inactive) with Malme-3M, 20.5 µM (inactive) in the experiment on COLO 205 and 19.5 µM (inactive) in the experiment on NCI-H23.
With `Cc1cccc(NC(=S)Nc2ccccc2Cl)n1`, the GI50 was 27.4 µM (inactive) in the experiment on CAKI-1; > 100 µM (inactive) in the experiment on HCT-116; 59.7 µM (inactive) with BT-549; 49 µM (inactive) with NCI/ADR-RES; > 100 µM (inactive) with UO-31; 19.3 µM (inactive) in the experiment with SNB-75. Also, the GI50 with OVCAR-8 was 29.6 µM (inactive); with EKVX, 21.9 µM (inactive); in the experiment on T47D, 29 µM (inactive); with NCI-H226, 39 µM (inactive); in the experiment with Malme-3M, 38 µM (inactive); with COLO 205, > 100 µM (inactive). Also, the GI50 in the experiment with LOX IMVI is > 100 µM (inactive); in the experiment with SF-539, 32.1 µM (inactive).
As for `Cc1nc2ccc(F)cc2c2c1CCN2c1ccc(Cl)cc1`, the GI50 with CAKI-1 was 13.9 µM (inactive); in the experiment with HCT-116 it was 4.52 µM (inactive); with MDA-MB-231, 4.04 µM (inactive); in the experiment with HCC 2998 it was 13.7 µM (inactive); in the experiment with HOP-92, 2.69 µM (inactive); in the experiment with ACHN, 13.7 µM (inactive). The GI50 was 19.5 µM (inactive) in the experiment with BT-549; 4.88 µM (inactive) in the experiment with NCI/ADR-RES; 5.45 µM (inactive) with UO-31; 39.6 µM (inactive) in the experiment on SNB-75; 9.71 µM (inactive) in the experiment with OVCAR-8; 6.78 µM (inactive) in the experiment on NCI-H522. The GI50 is 9.38 µM (inactive) with NCI-H226; 10.7 µM (inactive) in the experiment with Malme-3M; 6.71 µM (inactive) in the experiment with COLO 205; 12.5 µM (inactive) in the experiment on LOX IMVI; 10.5 µM (inactive) in the experiment with SF-539; 5.15 µM (inactive) in the experiment with NCI-H23.
As for `COc1ccc(N2C(=O)C3c4[nH]c5ccc(Br)cc5c4C4CCC(C(C)(C)C)CC4C3C2=O)cc1` (stereo not drawn), the GI50 in the experiment with CAKI-1 was > 100 µM (inactive); with HCT-116 it was > 100 µM (inactive); with MDA-MB-231 it was 82 µM (inactive); with HCC 2998, > 100 µM (inactive); with ACHN, > 100 µM (inactive); with BT-549 it was > 100 µM (inactive). In addition, the GI50 is > 100 µM (inactive) with NCI/ADR-RES; > 100 µM (inactive) with OVCAR-8; > 100 µM (inactive) with EKVX; > 100 µM (inactive) with NCI-H522; > 100 µM (inactive) in the experiment on NCI-H226; 91.8 µM (inactive) in the experiment with Malme-3M. In addition, the GI50 with COLO 205, with LOX IMVI, in the experiment with SF-539 and in the experiment on NCI-H23 was > 100 µM (inactive) throughout.
On to `O=C1Sc2sc(=S)sc2SC1c1ccccc1` (stereo not drawn), for which the GI50 in the experiment with CAKI-1 is 1 µM (active); in the experiment on HCT-116, > 59 µM (inactive); in the experiment with HCC 2998, > 89.7 µM (inactive); with HOP-92 it was 36.6 µM (inactive); in the experiment with NCI/ADR-RES it was 40.5 µM (inactive); in the experiment on UO-31, 39 µM (inactive). Also, the GI50 is > 50.2 µM (inactive) in the experiment with SNB-75; 59 µM (inactive) in the experiment with OVCAR-8; > 100 µM (inactive) with EKVX; 14.2 µM (inactive) in the experiment on NCI-H522; > 81.8 µM (inactive) with NCI-H226; > 49.3 µM (inactive) in the experiment on Malme-3M. The GI50 was 37.2 µM (inactive) in the experiment with COLO 205, 30.8 µM (inactive) in the experiment on LOX IMVI, 74 µM (inactive) in the experiment on SF-539 and 82.6 µM (inactive) in the experiment on NCI-H23.
`O=C1c2ccccc2C(=O)N1CC(O)COc1cccc2ccccc12` (stereo not drawn): the GI50 in the experiment on CAKI-1 is 16.2 µM (inactive); in the experiment with HCT-116, > 100 µM (inactive); in the experiment with MDA-MB-231, > 100 µM (inactive); in the experiment with HCC 2998, > 100 µM (inactive); in the experiment with ACHN it was 76.4 µM (inactive); with NCI/ADR-RES it was > 100 µM (inactive). Also, the GI50 with UO-31 was > 100 µM (inactive); in the experiment on OVCAR-8, > 100 µM (inactive); with EKVX, > 100 µM (inactive); in the experiment with NCI-H522, > 100 µM (inactive); with T47D it was > 10 µM (inactive); in the experiment with Malme-3M it was 61.8 µM (inactive). Besides, the GI50 in the experiment on COLO 205 and in the experiment with LOX IMVI was > 100 µM (inactive) throughout.
Turning to `COc1ccc(-c2cc(-c3ccco3)c(C#N)c(=S)n2C2OC(CO)C(O)C(O)C2O)cc1` (stereo not drawn), the GI50 is > 100 µM (inactive) in the experiment on CAKI-1; > 100 µM (inactive) with HCT-116; 36.2 µM (inactive) with MDA-MB-231; 25 µM (inactive) in the experiment on HCC 2998; > 100 µM (inactive) with ACHN; > 100 µM (inactive) with BT-549. The GI50 in the experiment with NCI/ADR-RES, in the experiment on UO-31, with SNB-75, with OVCAR-8, in the experiment on EKVX and in the experiment with NCI-H522 was > 100 µM (inactive) throughout. Also, the GI50 in the experiment on NCI-H226 was > 100 µM (inactive); with Malme-3M, > 100 µM (inactive); in the experiment on COLO 205 it was > 100 µM (inactive); with LOX IMVI, 50.4 µM (inactive); in the experiment with SF-539, > 100 µM (inactive); in the experiment with NCI-H23, > 100 µM (inactive).
As to `NC(=O)CCC(NC(=O)c1cccc2c(=O)c3ccccc3[nH]c12)C(=O)O` (stereo not drawn), the GI50 was > 100 µM (inactive) with HCT-116; > 100 µM (inactive) in the experiment with MDA-MB-231; 77.3 µM (inactive) in the experiment with HOP-92; > 100 µM (inactive) in the experiment with ACHN; > 100 µM (inactive) with NCI/ADR-RES; > 100 µM (inactive) in the experiment on UO-31. Further, the GI50 in the experiment with SNB-75, in the experiment on OVCAR-8, in the experiment with EKVX, in the experiment with NCI-H522, with NCI-H226 and in the experiment on Malme-3M was > 100 µM (inactive) in each case. For the same compound, the GI50 in the experiment with COLO 205, in the experiment on LOX IMVI and in the experiment on NCI-H23 was > 100 µM (inactive) throughout.
Take `Cc1nn(C(=O)Cc2ccccc2)c2c1C(c1ccc(Cl)cc1)SC(=N)N2` (stereo not drawn): the GI50 in the experiment on CAKI-1, in the experiment on HCT-116, in the experiment with MDA-MB-231, in the experiment with HCC 2998, with ACHN and with BT-549 was > 100 µM (inactive) throughout. Also, the GI50 is 17.2 µM (inactive) with SNB-75; > 100 µM (inactive) with OVCAR-8; > 100 µM (inactive) in the experiment with EKVX; > 100 µM (inactive) in the experiment with NCI-H522; > 100 µM (inactive) in the experiment on T47D; > 100 µM (inactive) in the experiment with Malme-3M. In addition, the GI50 in the experiment on COLO 205, with LOX IMVI, in the experiment with SF-539 and in the experiment on NCI-H23 was > 100 µM (inactive) each time.
As for `CC(=O)OC1CCC2(C)C(CCC3C2CCC2(C)C(c4ccc(=O)oc4)C(OC(C)=O)CC32O)C1` (stereo not drawn), the GI50 with CAKI-1 is 0.0151 µM (active); in the experiment with HCT-116, 0.0157 µM (active); in the experiment with HCC 2998, 0.0269 µM (active); in the experiment on HOP-92 it was 0.0195 µM (active); with NCI/ADR-RES, 0.0191 µM (active); with UO-31 it was 0.0156 µM (active). The GI50 in the experiment on SNB-75 was 0.0183 µM (active); with OVCAR-8 it was 0.0171 µM (active); in the experiment with EKVX, 0.0168 µM (active); in the experiment with NCI-H522 it was 0.016 µM (active); in the experiment on NCI-H226, 0.0356 µM (active); with Malme-3M, 0.0125 µM (active). For the same compound, the GI50 with COLO 205 is 0.0288 µM (active); in the experiment on LOX IMVI it was 0.0176 µM (active); in the experiment with SF-539, 0.0125 µM (active); in the experiment with NCI-H23, 0.0154 µM (active).
For the compound `OC[C@H]1O[C@@H](n2cnc3cncnc32)[C@H](O)[C@@H]1O` [NEBULARINE], the GI50 in the experiment with CAKI-1 was 0.423 µM (active); with HCT-116 it was 0.321 µM (active); with HCC 2998, 0.989 µM (active); in the experiment with HOP-92 it was 0.656 µM (active); in the experiment on NCI/ADR-RES, 0.69 µM (active); with UO-31, 1.28 µM (inactive). Further, the GI50 was 0.628 µM (active) with SNB-75; 1.17 µM (inactive) in the experiment on OVCAR-8; 0.605 µM (active) in the experiment with EKVX; 2.1 µM (inactive) in the experiment with NCI-H522; 1.34 µM (inactive) in the experiment on NCI-H226; 2.03 µM (inactive) in the experiment on Malme-3M. Besides, the GI50 is 0.417 µM (active) in the experiment with COLO 205, 0.977 µM (active) in the experiment on LOX IMVI, 1.43 µM (inactive) in the experiment with SF-539 and 1.75 µM (inactive) with NCI-H23.
